Laboratory results from patent publication US20250345512A1, “COMBINATION SODIUM-GLUCOSE COTRANSPORTER INHIBITOR (SGLTI) INSULIN THERAPY FOR GLYCEMIC CONTROL IN TYPE 1 DIABETES” (University of Virginia Patent Foundation, priority 2022, published 2025).

Test system: participants with T1D
Experiment: Randomized crossover clinical trial (NCT04201496): CGM glycemic outcomes with 5 mg daily empagliflozin adjunctive to AID (Control-IQ, CIQ) or PLGS (Basal-IQ, BIQ)
Assay type: in vivo, human
Method: FIG. 2 presents a study analysis relative to baseline, control IQ (CIQ) (e.g., AID), and basal IQ (BIQ) (e.g., PLGS) implementation, according to investigation that is demonstrable of one or more embodiments herein. Therein, an experimental arm (G1, G2) providing an initial daily dose of 5 mg empagliflozin (EMPA) is depicted against a control arm (G3, G4) without such dosing (NOEMPA). Relative characteristics of the analysis are provided below.
Study Design: A single-center, randomized, controlled, unblinded, crossover clinical trial (NCT04201496) compared four parallel groups, two groups in the experimental arm (EMPA) with 5 mg daily empagliflozin as adjunctive therapy to PLGS or AID, and two groups in the control arm (NOEMPA) with no drug and with a PLGS system (Basal-IQ, Tandem Diabetes Care) or AID system (Control-IQ, Tandem Diabetes Care). The groups within each arm differed from one another in the order of the randomly assigned crossover technological intervention, relative to PLGS being followed by AID or AID being followed by PLGS, respectively (FIG. 4). The study protocol was approved by the University of Virginia Institutional Review Board (IRB). An investigational device exemption (IDE), including an investigational new drug (IND) application for empagliflozin, was approved by the FDA. Safety aspects were overseen by an external data and safety monitoring board (DSMB). Participants: Major inclusion criteria were T1D treated with insulin for at least one year, use of continuous subcutaneous insulin infusion therapy for at least six months, age 18-65 yrs., no use of glucose lowering agents other than insulin, and Hb1Ac<9% (75 mmol/mol). Randomization: A (1:1:1:1) randomization assigned participants to either Group 1, AID-EMPA (4 weeks) followed by PLGS-EMPA (2 weeks), Group 2, PLGS-EMPA (2 weeks) followed by AID-EMPA (4 weeks), Group 3, AID-NOEMPA (4 weeks) followed by PLGS-NOEMPA (2 weeks), and Group 4, PLGS-NOEMPA (2 weeks) followed by AID-NOEMPA (4 weeks). Procedures: After confirmation of eligibility, participants underwent study equipment and medication training (experimental arm), or only study equipment training (control arm). Study equipment consisted of Dexcom G6® CGM (Dexcom Inc., San Diego, CA), Contour® Next blood glucose (Ascensia Diabetes Care, Basel, Switzerland) and Precision Xtra® blood ketone meters (Abbott, Alameda, CA) with their respective test strips; infusion sets, and the use of the t:slim X2™ insulin pump with Basal-IQ or Control-IQ technologies (Tandem Diabetes Care, San Diego, CA), according to randomization. […] Participants in the experimental arm were asked to record two days of baseline ketone values before initiating the use of the study drug. Thereafter, participants were directed to use the study CGM with EMPA for 1-2 weeks. A tolerance to the medication was assessed prior to the starting of the next study phase, including adherence to the protocol, ketone testing 2-4 times per day with monitored values not greater than 0.6 mmol/L on at least two successive occasions (the first testing upon waking in a fasted state), no adverse events relating to perineal infection or symptomatic postural hypotension, and no evidence of significant hypoglycemia <54 mg/dL, or any other listed adverse effects of the medication. Participants in the control arm were directed to use the study CGM for 1-2 weeks. Sample Size: The total sample size was projected to be 40 participants, assuming 1) 1:1:1:1 randomization; 2) 90% power and type 1 error a=0.01, further reinforcing the feasibility of hierarchical analyses. The projected recruitment sample was n=50, to accommodate up to 20% attrition rate without sacrificing statistical power. Analytical methods: For the primary analysis, TIR during the day in the 4-week AID period was compared between the two EMPA groups versus the two NOEMPA groups using a linear mixed-effects regression model while adjusting for pre-randomization HbAlc and age. […]

[1] = EMPA minus NOEMPA on same insulin system, adjusted for HbA1c
[2] = daytime (7:00-23:00), CIQ-EMPA vs. BIQ-NOEMPA, BIQ-EMPA vs. CIQ-NOEMPA
[3] = daytime (7:00-23:00), CIQ-EMPA vs. CIQ-NOEMPA, BIQ-EMPA vs. BIQ-NOEMPA
[4] = daytime (7:00-23:00), n = 16, mean ± SD
[5] = daytime (7:00-23:00), n = 16, median (IQR)

SMILES: OC[C@H]1O[C@@H](c2ccc(Cl)c(Cc3ccc(O[C@H]4CCOC4)cc3)c2)[C@H](O)[C@@H](O)[C@@H]1O [BIQ-EMPA, empagliflozin]
- 24/7 HBGI - median (IQR) (24/7, n = 17): 3.3(1.8-4.7)
- 24/7 LBGI - median (IQR) (24/7, n = 17): 0.7(0.6-1)
- 24/7 glucose level <70 mg/dL (<3.9 mmol/L) - median % time (IQR) (24/7, n = 17): 1.7(0.9-2.7) %
- 24/7 Mean glucose level - (24/7, n = 17, mean ± SD): 141 ± 30 mg/dL
- Difference (95% CI): 24/7 HBGI [1]: −3.7(−6.5 to −1)
- Difference (95% CI): 24/7 LBGI [1]: 0.1(−0.3 to 0.6)
- Difference (95% CI): 24/7 Mean glucose level [1]: −24.1(−42.2 to −6) mg/dL
- Difference (95% CI): 24/7 glucose level <70 mg/dL % time [1]: 0.2(−1.7 to 2.1) percentage points
- Difference (95% CI): Daytime CGM CV [1]: −4.0(−6.8 to −1.2) %
- Difference (95% CI): Daytime CGM SD [1]: −13.2(−21.6 to −4.8) mg/dL
- Difference (95% CI): daytime glucose % Time in range of 70 to 180 mg/dL (EMPA minus NOEMPA on same insulin system, adjusted for pre-randomization HbA1c): 16.5(7.3 to 26) ^ percentage points
- Primary: daytime glucose % Time in range of 70 to 180 mg/dL (3.9-10.0 mmol/L) (daytime 7:00 to 23:00 h, n = 17, mean ± SD): 80 ± 14%
- Difference (95% CI): % CGM time <50 mg/dL (<2.8 mmol/L) [2]: −0.3 percentage points
- Difference (95% CI): % CGM time <60 mg/dL (<3.3 mmol/L) [2]: −0.2 percentage points
- Difference (95% CI): % CGM time >180 mg/dL (>10.0 mmol/L) [2]: −9.5 percentage points
- Difference (95% CI): % CGM time >250 mg/dL (>13.9 mmol/L) [2]: −2.2 percentage points
- Difference (95% CI): % CGM time >300 mg/dL (>16.7 mmol/L) [2]: −0.4 percentage points
- Difference (95% CI): CGM HBGI [2]: −1.9
- Difference (95% CI): CGM LBGI [2]: 0.3
- Difference (95% CI): CGM SD [2]: -7.1 mg/dL
- Difference (95% CI): Mean CGM glucose [2]: -14.9 mg/dL
- Difference (95% CI): % CGM time 70-140 mg/dL (<3.9-7.8 mmol/L) [3]: 17.6 percentage points
- Difference (95% CI): % CGM time >180 mg/dL (>10.0 mmol/L) [3]: −16.7 percentage points
- Difference (95% CI): % CGM time >250 mg/dL (>13.9 mmol/L) [3]: −7.6 percentage points
- Difference (95% CI): % CGM time >300 mg/dL (>16.7 mmol/L) [3]: −2.7 percentage points
- Difference (95% CI): CGM HBGI [3]: −4
- Difference (95% CI): CGM LBGI [3]: −0.3
- Difference (95% CI): CGM SD [3]: -13.2 mg/dL
- Difference (95% CI): Mean CGM glucose [3]: -23.8 mg/dL
- Difference (95% CI): % CGM time <70-180 mg/dL (3.9-10.0 mmol/L) (daytime (7:00-23:00), CIQ-EMPA vs. CIQ-NOEMPA, BIQ-EMPA vs. BIQ-NOEMPA, listed as PLGS-EMPA): 16 percentage points
- % CGM time 70-140 mg/dL (3.9-7.8 mmol/L) [4]: 58.1 ± 16.5%
- % CGM time 70-180 mg/dL (3.9-10.0 mmol/L) [4]: 80 ± 14.5%
- CGM CV (%) [4]: 35.7 ± 3.5%
- CGM SD [4]: 45 ± 14.6 mg/dL
- Mean CGM glucose [4]: 139 ± 26 mg/dL
- % CGM time 70-180 mg/dL (3.9-10.0 mmol/L) (daytime (7:00-23:00), n = 16, mean ± SD, listed as PLGS-EMPA): 80±14.5%
- % CGM time <50 mg/dL (<2.8 mmol/L) [5]: 0(0-0.4) %
- % CGM time <60 mg/dL (<3.3 mmol/L) [5]: 0.5(0.1-0.9) %
- % CGM time <70 mg/dL (<3.9 mmol/L) [5]: 1.7(0.9-2.7) %
- % CGM time >180 mg/dL (>10.0 mmol/L) [5]: 11.3(5.3-22.4) %
- % CGM time >250 mg/dL (>13.9 mmol/L) [5]: 1.7(0.1-4.4) %
- % CGM time >300 mg/dL (>16.7 mmol/L) [5]: 0.1(0-0.8) %
- CGM HBGI [5]: 2.8(1.6-4.9)
- CGM LBGI [5]: 0.7(0.6-0.9)
- Daytime CGM CV - % (daytime, n = 17, mean ± SD): 30.4 ± 3.5%
- Daytime CGM SD - (daytime, n = 17, mean ± SD): 44.9 ± 14.7 mg/dL
- Difference: CGM HBGI (overall, CIQ-EMPA vs. BIQ-NOEMPA, BIQ-EMPA vs. CIQ-NOEMPA): −1.6
